From US9499554B2, “Anti-influenza compositions and methods” (priority 2013, dated 2016)
≈ marks a conversion by molar mass, not a printed value.

Tested on: A/NJ/15/2007 (H1N1-H274Y)
Type: cell-based, Influenza A

Nc1ncnc2c([C@@H]3N[C@H](CO)[C@@H](O)[C@H]3O)c[nH]c12 [compound 1, (2S,3S,4R,5R)-2-(4-Amino-5H-pyrrolo[3,2-d]pyrimidin-7-yl)-5-(hydroxymethyl)pyrrolidine-3,4-diol]
EC50, antiviral activity in MDCK cells: 1.39 µg/mL (≈ 5.24 µM)
